Source: patent publication US20210220328A1, “PYRROLE DERIVATIVES AS ACC INHIBITORS” (Almirall, S.A., priority 2017, published 2021)

Tested on: immortalized human sebocyte cell line, SZ95
Assay: In vitro assay of inhibition of lipid synthesis
Format: cell-based
Conditions: 48 h, SZ95 sebocytes
Description: In Vitro Assay of Inhibition of Lipid Synthesis
To evaluate the inhibition of lipid synthesis, the immortalized human sebocyte cell line, SZ95 (stablished by Zouboulis, C. C. et al J Invest Dermatol 1999; 113:1011-20), was treated with arachidonic acid (AA) in presence or absence of compound. Lipids were detected by using a lipid sensing fluorophore.
Compounds were dissolved in dimethylsulfoxide (DMSO) 100%. Then the stocks were serial diluted 1/3 in DMSO 100%, and this battery of solutions were diluted 1/10 in culture medium, to minimize the percentage of the DMSO over cells.
10 k cells were plated in 384 well microtiter plates and incubated at 37° C. and 5% CO2 in DMEM/F12 supplemented with 10% FBS, 1.25 ng/ml of rhEGF and GA-1000 before of compound and stimulus addition. After 24 h, compounds dissolved in culture media were added over cells, diluting the solutions prepared 1/40 in the final volume of the assay. Then, cells and compounds were preincubated for 30 min at 37° C. and 5% CO2. After this prior incubation, the lipid synthesis was induced by 75 μM of AA final solution, preparing a solution 10× in culture media. Finally, SZ95 treated were incubated for 48 h at 37° C. and 5% CO2.
Neutral lipids were measured using AdipoRed™, purchased from LONZA. To do that, cells were washed with PBS and incubated with a solution of AdipoRed™ (final dilution 1/80 in PBS) for 30 min at room temperature. After the staining process, the fluorescence intensity (FI) was quantified using a fluorescence plate reader (excitation 485 nm; emission 535).
Activity of compounds were calculated as % of inhibition considering the maximal fluorescence for AA-stimulated cells and the minimum fluorescence for unstimulated cells as controls.

[1] = 75 μM arachidonic acid, AdipoRed, Table 2, finer classes for compounds with IC50 less than 250 nM
[2] = lipid synthesis induced by 75 μM arachidonic acid, AdipoRed fluorescence, Table 1

Row | Compound | IC50 [1] | IC50 [2]
1 | CCCCCCCCCCCCc1cc(Cl)c(C(=O)OC(C)OC(=O)OCCOC)[nH]1 (stereo not shown) [Example 116, 1-(((2-Methoxyethoxy)carbonyl)oxy)ethyl 3-chloro-5-dodecyl-1H-pyrrole-2-carboxylate] | 50 to 100 nM | < 250 nM
2 | CCCCCCCCCCCCCCc1c[nH]c(C(=O)O)c1F [Example 52, 3-Fluoro-4-tetradecyl-1H-pyrrole-2-carboxylic acid] | < 50 nM | < 250 nM
3 | CCCCCCCCCCCCc1cc(Cl)c(C(=O)OCCOCCOCC)[nH]1 [Example 114, 2-(2-Ethoxyethoxy)ethyl 3-chloro-5-dodecyl-1H-pyrrole-2-carboxylate] |  | 1000 to 5000 nM
4 | CCCCCCCCCCCc1c[nH]c(C(=O)O)c1F [Example 13, 3-Fluoro-4-undecyl-1H-pyrrole-2-carboxylic acid] | < 50 nM | < 250 nM
5 | CCCCCCCCCCCOc1c[nH]c(C(=O)O)c1F [Example 72, 3-Fluoro-4-(undecyloxy)-1H-pyrrole-2-carboxylic acid] | < 50 nM | < 250 nM
6 | CCCCCCCCCCCCCc1cc(F)c(C(=O)O)[nH]1 [Example 120, 3-Fluoro-5-tridecyl-1H-pyrrole-2-carboxylic acid] | < 50 nM | < 250 nM
7 | CCCCCCCCCCCCCc1c[nH]c(C(=O)OCC(=O)N(C)CC(=O)OCC)c1F [Example 31, 2-((2-Ethoxy-2-oxoethyl)(methyl)amino)-2-oxoethyl 3-fluoro-4-tridecyl-1H-pyrrole-2-carboxylate] | < 50 nM | < 250 nM
8 | CCCCCCCCCCCCOc1c[nH]c(C(=O)O)c1Cl [Example 80, 3-Chloro-4-(dodecyloxy)-1H-pyrrole-2-carboxylic acid] | < 50 nM | < 250 nM
9 | CCCCCCCCCCc1c[nH]c(C(=O)O)c1F [Example 12, 4-Decyl-3-fluoro-1H-pyrrole-2-carboxylic acid] | < 50 nM | < 250 nM
10 | CCCCCCCCCCCCCCOc1c[nH]c(C(=O)O)c1F [Example 75, 3-Fluoro-4-(tetradecyloxy)-1H-pyrrole-2-carboxylic acid] | < 50 nM | < 250 nM
11 | CCCCCCCCCCCCOc1c[nH]c(C(=O)O)c1F [Example 73, 4-(Dodecyloxy)-3-fluoro-1H-pyrrole-2-carboxylic acid] | < 50 nM | < 250 nM
12 | CCCCCCCCCCCCCOc1c[nH]c(C(=O)O)c1Cl [Example 89, 3-Chloro-4-(tridecyloxy)-1H-pyrrole-2-carboxylic acid] | < 50 nM | < 250 nM
13 | CCCCCCCCCCCCCc1c[nH]c(C(=O)OCCCCCCCCCO)c1F [Example 39, 9-Hydroxynonyl 3-fluoro-4-tridecyl-1H-pyrrole-2-carboxylate] | < 50 nM | < 250 nM
14 | CCCCCCCCCCCCc1cc(Cl)c(C(=O)OC(C)OC(=O)OCCOCCOCC)[nH]1 (stereo not shown) [Example 117, 4-Oxo-3,5,8,11-tetraoxatridecan-2-yl 3-chloro-5-dodecyl-1H-pyrrole-2-carboxylate] | 100 to 250 nM | < 250 nM
15 | CCCCCCCCCCCCCc1c[nH]c(C(=O)O)c1F [Example 21, 3-Fluoro-4-tridecyl-1H-pyrrole-2-carboxylic acid] | < 50 nM | < 250 nM
16 | CCCCCCCCCCCCc1cc(Cl)c(C(=O)OC(C)OC(=O)OC(C)C)[nH]1 (stereo not shown) [Example 115, 1-((Isopropoxycarbonyl)oxy)ethyl 3-chloro-5-dodecyl-1H-pyrrole-2-carboxylate] | 100 to 250 nM | < 250 nM
17 | CCCCCCCCCCCc1cc(Cl)c(C(=O)O)[nH]1 [Example 64, 3-Chloro-5-undecyl-1H-pyrrole-2-carboxylic acid] | 50 to 100 nM | < 250 nM
18 | CCCCCCCCCCCCCOc1c[nH]c(C(=O)O)c1F [Example 74, 3-Fluoro-4-(tridecyloxy)-1H-pyrrole-2-carboxylic acid] | < 50 nM | < 250 nM
19 | CCCCCCCCCCCCCc1c[nH]c(C(=O)O)c1Cl [Example 61, 3-Chloro-4-tridecyl-1H-pyrrole-2-carboxylic acid] | 100 to 250 nM | < 250 nM
20 | CCCCCCCCCCCCOc1c[nH]c(C(=O)OCC)c1 [Example 2, Ethyl 4-(dodecyloxy)-1H-pyrrole-2-carboxylate] |  | > 5000 nM
21 | CCCCCCCCCCCC(C)(C)COc1c[nH]c(C(=O)O)c1F [Example 96, 4-((2,2-Dimethyltridecyl)oxy)-3-fluoro-1H-pyrrole-2-carboxylic acid] | 50 to 100 nM | < 250 nM

Row | Compound | IC50 [1] | IC50 [2]
22 | CCCCCCCCCCCCOc1c[nH]c(C(=O)OCCN2CCCC2=O)c1 [Example 4, 2-(2-Oxopyrrolidin-1-yl)ethyl 4-(dodecyloxy)-1H-pyrrole-2-carboxylate] |  | 1000 to 5000 nM
23 | CCCCCCCCCCC(C)(C)Cc1cc(Cl)c(C(=O)O)[nH]1 [Example 127, 3-Chloro-5-(2,2-dimethyldodecyl)-1H-pyrrole-2-carboxylic acid] | < 50 nM | 250 to 1000 nM
24 | CCCCCCCCCCCCCc1c[nH]c(C(=O)OCCN2CCCC2=O)c1F [Example 29, 2-(2-Oxopyrrolidin-1-yl)ethyl 3-fluoro-4-tridecyl-1H-pyrrole-2-carboxylate] | 100 to 250 nM | < 250 nM
25 | CCCCCCCCCCCCCc1cn(C(C)C)c(C(=O)O)c1F [Example 70, 3-Fluoro-1-isopropyl-4-tridecyl-1H-pyrrole-2-carboxylic acid] |  | 1000 to 5000 nM
26 | CCCCCCCCCCCCC(F)(F)COc1c[nH]c(C(=O)O)c1F [Example 97, 4-((2,2-Difluorotetradecyl)oxy)-3-fluoro-1H-pyrrole-2-carboxylic acid] | 100 to 250 nM | < 250 nM
27 | CCCCCCCCCCCCc1cc(Cl)c(C(=O)O)[nH]1 [Example 65, 3-Chloro-5-dodecyl-1H-pyrrole-2-carboxylic acid] | 50 to 100 nM | < 250 nM
28 | O=C(O)c1[nH]c(CCCCCCCCCCCCCCF)cc1F [Example 131, 3-Fluoro-5-(14-fluorotetradecyl)-1H-pyrrole-2-carboxylic acid] | 100 to 250 nM | < 250 nM
29 | CCCCCCCCCCCOc1c[nH]c(C(=O)OCCOCCOCC)c1F [Example 104, 2-(2-Ethoxyethoxy)ethyl 3-fluoro-4-(undecyloxy)-1H-pyrrole-2-carboxylate] | 100 to 250 nM | < 250 nM
30 | CCCCCCCCCCCCOc1c[nH]c(C(=O)OC(C)OC(=O)OC(C)C)c1 (stereo not shown) [Example 8, 1-((Isopropoxycarbonyl)oxy)ethyl 4-(dodecyloxy)-1H-pyrrole-2-carboxylate] | 100 to 250 nM | < 250 nM
31 | CCCCCCCCCCCCc1c[nH]c(C(=O)OCCN2C(=O)CCC2=O)c1Cl [Example 60, 2-(2,5-dioxopyrrolidin-1-yl)ethyl 3-chloro-4-dodecyl-1H-pyrrole-2-carboxylate] |  | 1000 to 5000 nM
32 | CCCCCCCCCCCCCc1c[nH]c(C(=O)OCCOCCOCC)c1Cl [Example 109, 2-(2-Ethoxyethoxy)ethyl 3-chloro-4-tridecyl-1H-pyrrole-2-carboxylate] |  | 250 to 1000 nM
33 | CCCCCCCCCCCCOc1c[nH]c(C(=O)OCCOC(=O)[C@@H](N)C(C)C)c1 [Example 10, 2-((L-valyl)oxy)ethyl 4-(dodecyloxy)-1H-pyrrole-2-carboxylate] |  | 1000 to 5000 nM
34 | CCCCCCCCCCCCCc1c[nH]c(C(=O)OCCOCCOCCOCCO)c1F [Example 42, 2-(2-(2-(2-Hydroxyethoxy)ethoxy)ethoxy)ethyl 3-fluoro-4-tridecyl-1H-pyrrole-2-carboxylate] | 100 to 250 nM | < 250 nM
35 | CCCCCCCCCCCCCc1c[nH]c(C(=O)OCCN2C(=O)CCC2=O)c1F [Example 28, 2-(2,5-Dioxopyrrolidin-1-yl)ethyl 3-fluoro-4-tridecyl-1H-pyrrole-2-carboxylate] | 50 to 100 nM | < 250 nM
36 | CCCCCCCCCCCCc1cc(Cl)c(C(=O)OCC(F)(F)F)[nH]1 [Example 113, 2,2,2-Trifluoroethyl 3-chloro-5-dodecyl-1H-pyrrole-2-carboxylate] |  | 1000 to 5000 nM
37 | CCCCCCCCCCCCc1c[nH]c(C(=O)O)c1F [Example 14, 4-Dodecyl-3-fluoro-1H-pyrrole-2-carboxylic acid] | < 50 nM | < 250 nM
38 | CCCCCCCCCCOc1c[nH]c(C(=O)O)c1F [Example 71, 4-(Decyloxy)-3-fluoro-1H-pyrrole-2-carboxylic acid] | < 50 nM | < 250 nM
39 | CCCCCCCCCCCCOc1c[nH]c(C(=O)OCC(=O)N(C)CC(=O)OCC)c1 [Example 9, 2-((2-Ethoxy-2-oxoethyl)(methyl)amino)-2-oxoethyl 4-(dodecyloxy)-1H-pyrrole-2-carboxylate] |  | 1000 to 5000 nM
40 | CCCCCCCCCCC(C)(C)Cc1c[nH]c(C(=O)O)c1F [Example 102, 4-(2,2-Dimethyldodecyl)-3-fluoro-1H-pyrrole-2-carboxylic acid] | < 50 nM | < 250 nM
41 | CCCCCCCCCCCOc1c[nH]c(C(=O)OCC(F)(F)F)c1F [Example 103, 2,2,2-Trifluoroethyl 3-fluoro-4-(undecyloxy)-1H-pyrrole-2-carboxylate] | < 50 nM | < 250 nM
